# Test results from article PMC4139342, “Pharmacokinetics-Pharmacodynamics Analysis of Bicyclic 4-Nitroimidazole Analogs in a Murine Model of Tuberculosis” (PLoS ONE, 2014).
# Where two headings read alike, the source gives them in different places.
# Assays:
# [1] = In vivo plasma PK after intravenous dosing; settings: female, CD-1, mouse, plasma, iv, T1/2 (i.v), mice
# [2] = in vivo; settings: female, CD-1, mouse, po
# [3] = In vivo lung PK after oral dosing; settings: female, CD-1, mouse
# [4] = in vitro; settings: mouse, plasma
# [5] = Cytotoxicity against THP1 macrophage cell lines; type: cell-based; settings: human
# [6] = in vitro; settings: human, Caco-2
# [7] = female, CD-1, mouse, in vivo, po
# [8] = tested on: Mtb H37Rv; experiment: In vivo mouse efficacy, established murine TB model; parameters: species or system Balb/c mice; settings: for Mean log lung CFU ± SEM / log reduction at 25 mg/kg / log reduction at 100 mg/kg: 5 animals; for Efficacy compared with PA-824, in words: significance at P<0.05; for Dose dependence of efficacy, in words: 25 versus 100 mg/kg oral daily for 4 weeks; for log reduction at 25 mg/kg / log reduction at 100 mg/kg: Mycobacterium tuberculosis, H37RV, po, 672 h, read-out: Mean log lung CFU reduction ± SEM compared to untreated controls
# Procedure: In vivo mouse efficacy studies were determined after intranasal infection of Balb/c mice with 10^3 cfu Mtb H37Rv. Treatment was initiated 4 weeks after infection. Compounds were orally administered in CM-2 formulation for 4 weeks daily. Bacterial loads were determined at 2 and 4 weeks post treatment. Statistical analysis was done by a one-way analysis of variance, followed by a multiple comparison analysis of variance by a one-way Tukey test (GraphPad Prism, version 5.02, San Diago, California USA, www.graphpad.com). Differences were considered statistically significant at the 95% level of confidence.
# [9] = tested on: M. tuberculosis (Mtb) (H37Rv, ATCC 27294); experiment: microbe, parasite or virus in culture; type: cell-based; settings: Mycobacterium tuberculosis
# [10] = in vivo; settings: female, CD-1, mouse, po; remark: listed apart in the source
# [11] = physchem; settings: pH 6.8, aqueous buffer, thermodynamic from solid
# [12] = female, CD-1, mouse, in vivo, po, 25 mg/kg
# [13] = physchem
# [14] = in vivo; settings: female, CD-1, mouse, iv; for clearance: i.v. CL
# [15] = In vivo plasma PK after oral dosing in CM-2 formulation; settings: female, CD-1, mouse, plasma, po
# [16] = 5 mg/kg, i.v. dosing at 5 mg/kg
# [17] = 25 mg/kg, Lung to Plasma ratio AUC24
# [18] = 25 mg/kg, Lung to Plasma ratio Cmax
# [19] = 25 mg/kg oral daily for 4 weeks
# [20] = 100 mg/kg oral daily for 4 weeks
SMILES,"half-life [1, 16] [h]",Tmax ([2]; 25 mg/kg) [h],"Kp [2, 17]","Kp [2, 18]",half-life ([3]; 25 mg/kg) [h],fraction unbound [4],CC50 [5] [µg/mL],Lung AUC24 ([7]; 25 mg/kg) [µg·h/g],Lung Cmax ([7]; 25 mg/kg) [µg/g],"Mean log lung CFU ± SEM [8, 19] [log CFU]","Efficacy compared with PA-824, in words [8, 19]","log reduction at 25 mg/kg [8, 19]",MIC99 [9] [µg/mL],PAMPA %FA [%],PAMPA Log Pe,AUC ([10]; 25 mg/kg) [ng·h/mL],Cmax ([10]; 25 mg/kg) [ng/mL],Tmax ([10]; 25 mg/kg) [h],solubility [11] [µg/mL],logP [13],other results
CC[C@H]1Oc2nc([N+](=O)[O-])cn2C[C@@H]1NCc1ccc(OC(F)(F)F)cc1 [NI-182],2.8,0.5,3.3,3.3,1.9,0.087,> 10,73.2,11.4,4.84±0.14,comparable efficacy to PA-824,1.23 to 1.56,0.02,99,–3.8 cm/sec,22500,3500,0.5,32,3.05,"Papp A→B [6]: 18.3 ×10⁻⁶ cm/s; Papp B→A [6]: 13.9 ×10⁻⁶ cm/s; efflux ratio [6]: 0.8; Mean log lung CFU ± SEM [8, 20]: 4.81±0.18 log CFU; Efficacy compared with PA-824, in words [8, 20]: significantly (P<0.05) less efficacious than PA-824; Dose dependence of efficacy, in words [8]: no dose-dependent increase in bactericidal activity; log reduction at 100 mg/kg [8, 20]: 1.26 ± 0.18; bioavailability ([10]; 25 mg/kg): 82%; Plasma free fCmax [12]: 0.3 µg/mL; Vd ([14]; 5 mg/kg): 3 L/kg; clearance ([14]; 5 mg/kg): 15.2 mL/min/kg; half-life ([15]; 25 mg/kg): 2 h"
CC[C@@H]1Oc2nc([N+](=O)[O-])cn2C[C@@H]1NCc1ccc(OC(F)(F)F)cc1 [NI-269],2.1,0.3,1.7,1.9,2.7,,> 10,27.5,5.4,,,,0.03,99,–3.7 cm/sec,16000,2800,0.3,12,3.15,bioavailability ([10]; 25 mg/kg): 88%; Vd ([14]; 5 mg/kg): 2.6 L/kg; clearance ([14]; 5 mg/kg): 19.7 mL/min/kg; half-life ([15]; 25 mg/kg): 3.8 h
CC[C@H]1Oc2nc([N+](=O)[O-])cn2C[C@@H]1NCc1ccc(-c2ccc(OC(F)(F)F)cc2)cc1 [NI-297],6.7,8,2.4,2.7,4.6,0.018,> 10,233.4,16.3,4.51±0.11,comparable efficacy to PA-824,1.23 to 1.56,0.02,97,–4.1 cm/sec,99100,6000,8,< 2,6,bioavailability ([10]; 25 mg/kg): 100%; Plasma free fCmax [12]: 0.1 µg/mL; Vd ([14]; 5 mg/kg): 2.6 L/kg; clearance ([14]; 5 mg/kg): 5 mL/min/kg; half-life ([15]; 25 mg/kg): 4.9 h
O=C(CO[C@@H]1COc2nc([N+](=O)[O-])cn2C1)N1CCN(c2ccc(OC(F)(F)F)cc2)CC1 [NI-622],,,,,,0.03,> 10,,,5.77±0.08,significantly (P<0.05) less efficacious than PA-824,0.48 to 0.89,0.18,31,–5.3 cm/sec,,,,28.2,2.9,"half-life ([1]; 10 mg/kg, i.v. dosing at 10 mg/kg): 1.8 h; Kp ([2]; 50 mg/kg, Lung to Plasma ratio AUC24): 0.7; Kp ([2]; 50 mg/kg, Lung to Plasma ratio Cmax): 0.7; half-life ([3]; 50 mg/kg): 1.8 h; Papp A→B [6]: 9.5 ×10⁻⁶ cm/s; Papp B→A [6]: 12.4 ×10⁻⁶ cm/s; efflux ratio [6]: 1.3; Lung AUC24 ([7]; 50 mg/kg): 71.1 µg·h/g; Lung Cmax ([7]; 50 mg/kg): 10.2 µg/g; Mean log lung CFU ± SEM [8, 20]: 5.85±0.11 log CFU; Efficacy compared with PA-824, in words [8, 20]: significantly (P<0.05) less efficacious than PA-824; Dose dependence of efficacy, in words [8]: no dose-dependent increase in bactericidal activity; log reduction at 100 mg/kg [8, 20]: 0.81 ± 0.11; AUC ([10]; 50 mg/kg): 108000 ng·h/mL; Cmax ([10]; 50 mg/kg): 14800 ng/mL; bioavailability ([10]; 50 mg/kg): 100%; Vd ([14]; 10 mg/kg): 1.8 L/kg; clearance ([14]; 10 mg/kg): 14.7 mL/min/kg; half-life ([15]; 50 mg/kg): 2.1 h"
"COc1ccc(C[C@H](N)C(=O)N[C@H]2[C@@H](O)[C@H](n3cnc4c(N(C)C)ncnc43)O[C@@H]2CO)cc1 [Puromycin, reference compound]",,,,,,,,,,,,,,,,,,,,,"CC50 ([5]; THP1 macrophage cell lines, read-out: Cytotoxicity CC50): 1.4 µg/mL"
